This note sets out measurements from ChEMBL document CHEMBL2346533, “Structural effect of phenyl ring compared to thiadiazole based adamantyl-sulfonamides on carbonic anhydrase inhibition” (Bioorg Med Chem, 2013).

For test [1], the target named is Carbonic anhydrase 3 (Homo sapiens, UniProt P07451). Put plainly: Inhibition of human carbonic anhydrase-3 cytosolic isoform after 15 mins by Stopped-flow CO2 hydrase assay.
Test [2] addresses Carbonic anhydrase 1 (Homo sapiens, UniProt P00915). Put plainly: Inhibition of human carbonic anhydrase-1 cytosolic isoform after 15 mins by Stopped-flow CO2 hydrase assay.
The target of test [3] is Carbonic anhydrase 9 (Homo sapiens, UniProt Q16790). The test is described as follows: Inhibition of tumor-associated transmembrane human carbonic anhydrase-9 after 15 mins by Stopped-flow CO2 hydrase assay.
For test [4], the target named is Carbonic anhydrase 12 (Homo sapiens, UniProt O43570). The test is described as follows: Inhibition of tumor-associated transmembrane human carbonic anhydrase-12 after 15 mins by Stopped-flow CO2 hydrase assay.

Molecules are shown by their SMILES.

Sequence of Carbonic anhydrase 3 (P07451 whole entry, canonical isoform): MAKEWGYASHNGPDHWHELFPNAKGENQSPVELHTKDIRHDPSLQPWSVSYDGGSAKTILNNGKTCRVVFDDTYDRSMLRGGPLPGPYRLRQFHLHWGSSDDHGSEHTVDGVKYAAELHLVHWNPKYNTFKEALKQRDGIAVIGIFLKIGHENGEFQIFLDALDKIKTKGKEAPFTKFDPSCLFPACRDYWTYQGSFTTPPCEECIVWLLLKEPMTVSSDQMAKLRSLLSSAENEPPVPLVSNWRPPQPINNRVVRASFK
Sequence of Carbonic anhydrase 12 (O43570 whole entry): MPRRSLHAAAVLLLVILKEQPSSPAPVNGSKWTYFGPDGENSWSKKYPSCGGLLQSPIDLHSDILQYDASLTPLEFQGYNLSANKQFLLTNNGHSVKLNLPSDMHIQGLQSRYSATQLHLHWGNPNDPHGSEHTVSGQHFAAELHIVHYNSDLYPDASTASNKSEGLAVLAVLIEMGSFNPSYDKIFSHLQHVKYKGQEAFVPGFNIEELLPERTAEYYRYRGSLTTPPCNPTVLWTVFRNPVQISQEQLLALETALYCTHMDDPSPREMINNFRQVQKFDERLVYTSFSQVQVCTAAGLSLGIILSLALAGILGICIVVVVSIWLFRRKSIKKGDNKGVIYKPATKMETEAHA
Sequence of Carbonic anhydrase 1 (P00915 whole entry, canonical isoform): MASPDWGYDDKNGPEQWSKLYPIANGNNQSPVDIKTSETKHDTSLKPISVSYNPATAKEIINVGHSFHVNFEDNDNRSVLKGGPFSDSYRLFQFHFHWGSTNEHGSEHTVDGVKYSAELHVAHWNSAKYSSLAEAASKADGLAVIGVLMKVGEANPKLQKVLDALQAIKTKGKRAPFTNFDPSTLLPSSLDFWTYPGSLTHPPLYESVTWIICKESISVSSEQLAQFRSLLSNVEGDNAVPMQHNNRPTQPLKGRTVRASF

`NS(=O)(=O)c1nnc(NC(=O)CC23CC4CC(CC(C4)C2)C3)s1`: the Ki (as a rule, a measure of affinity in units of concentration, obtained from inhibition or displacement) is 1400 µM in test [1] and 0.34 µM in test [2].
Regarding `NS(=O)(=O)c1nnc(NC(=O)C23CC4CC(CC(C4)C2)C3)s1`, the Ki in test [1] was determined as 1200 µM; in test [2] it was 0.85 µM.
As for `NS(=O)(=O)c1ccc(NC(=O)C23CC4CC(CC(C4)C2)C3)cc1`, the Ki in test [1] is more than 10000 µM; in test [3], 0.0513 µM; in test [4] it was 0.0071 µM.
Turning to `NS(=O)(=O)c1ccc(NC(=O)CC23CC4CC(CC(C4)C2)C3)cc1`, the results for the Ki in test [1], in test [3] and in test [4] were more than 10000 µM, 0.0565 µM and 0.0094 µM, respectively.
